From paper PMC11233931, “Remodeling tumor‐associated macrophage for anti‐cancer effects by rational design of irreversible inhibition of mitogen‐activated protein kinase‐activated protein kinase 2” (MedComm, 2024)

Key:
Assay in all cases: Eurofins kinase selectivity profile against 380 other human recombinant kinases (Table S2)
Assay type in all cases: biochemical
[1] = target: T1, 380 human recombinant protein kinases (Homo sapiens, UniProt Q15208); conditions: NDR1(h), read-out: Inhibition rate
T1 construct: purchased Eurofins (Celle Lévescault)
Procedure, shortened: (§1)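 Selectivity panel of 380 human recombinant protein kinases, screened by Eurofins at a range of concentrations.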

[2] = target: T2, 380 human recombinant protein kinases (Homo sapiens, UniProt P35916); conditions: Flt4(h), read-out: Inhibition rate
T2 construct: purchased Eurofins (Celle Lévescault)
Procedure, shortened: as §1

[3] = target: T3, 380 human recombinant protein kinases (Homo sapiens, UniProt Q9NZJ5); conditions: PEK(h), read-out: Inhibition rate
T3 construct: purchased Eurofins (Celle Lévescault)
T3 sequence (Q9NZJ5 30-1116): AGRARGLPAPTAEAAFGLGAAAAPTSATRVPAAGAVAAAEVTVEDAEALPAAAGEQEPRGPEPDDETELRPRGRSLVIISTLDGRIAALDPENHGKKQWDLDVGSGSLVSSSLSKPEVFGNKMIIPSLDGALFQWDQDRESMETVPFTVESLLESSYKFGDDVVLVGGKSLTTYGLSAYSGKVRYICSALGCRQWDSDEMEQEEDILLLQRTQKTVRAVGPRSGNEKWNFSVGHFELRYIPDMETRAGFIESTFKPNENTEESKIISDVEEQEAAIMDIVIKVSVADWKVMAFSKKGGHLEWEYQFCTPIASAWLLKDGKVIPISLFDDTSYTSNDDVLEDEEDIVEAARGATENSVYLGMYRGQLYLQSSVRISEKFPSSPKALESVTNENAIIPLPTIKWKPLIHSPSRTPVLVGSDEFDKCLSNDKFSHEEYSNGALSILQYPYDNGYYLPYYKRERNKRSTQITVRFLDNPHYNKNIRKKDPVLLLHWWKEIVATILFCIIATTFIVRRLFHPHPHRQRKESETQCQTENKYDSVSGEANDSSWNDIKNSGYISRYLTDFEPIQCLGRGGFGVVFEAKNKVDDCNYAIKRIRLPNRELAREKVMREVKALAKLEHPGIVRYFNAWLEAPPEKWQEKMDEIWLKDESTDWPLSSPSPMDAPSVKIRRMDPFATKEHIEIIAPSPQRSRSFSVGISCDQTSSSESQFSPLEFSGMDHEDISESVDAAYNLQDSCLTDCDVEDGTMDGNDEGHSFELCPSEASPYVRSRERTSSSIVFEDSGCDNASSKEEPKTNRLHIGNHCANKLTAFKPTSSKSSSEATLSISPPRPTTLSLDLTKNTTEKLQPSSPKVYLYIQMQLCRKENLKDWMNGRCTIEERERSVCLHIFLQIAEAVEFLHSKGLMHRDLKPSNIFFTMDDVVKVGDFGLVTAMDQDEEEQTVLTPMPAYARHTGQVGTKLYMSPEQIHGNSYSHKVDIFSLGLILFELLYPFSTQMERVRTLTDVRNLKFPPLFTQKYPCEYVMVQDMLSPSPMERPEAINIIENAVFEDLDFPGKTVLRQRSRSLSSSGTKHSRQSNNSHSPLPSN
Procedure, shortened: as §1

[4] = target: T4, 380 human recombinant protein kinases (Homo sapiens, UniProt O14965); conditions: Aurora-A(h), read-out: Inhibition rate
T4 construct: purchased Eurofins (Celle Lévescault)
T4 sequence (O14965 1-403): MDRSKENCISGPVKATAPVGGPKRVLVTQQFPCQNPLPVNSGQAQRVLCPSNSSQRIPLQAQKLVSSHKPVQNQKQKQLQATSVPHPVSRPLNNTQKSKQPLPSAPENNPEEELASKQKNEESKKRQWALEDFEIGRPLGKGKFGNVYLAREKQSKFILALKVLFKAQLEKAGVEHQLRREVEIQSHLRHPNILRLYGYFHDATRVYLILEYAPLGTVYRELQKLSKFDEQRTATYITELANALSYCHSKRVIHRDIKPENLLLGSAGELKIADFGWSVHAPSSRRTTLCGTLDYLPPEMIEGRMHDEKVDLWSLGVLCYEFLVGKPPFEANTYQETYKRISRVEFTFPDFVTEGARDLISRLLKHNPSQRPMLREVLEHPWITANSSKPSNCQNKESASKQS
Procedure, shortened: as §1

[5] = target: T5, 380 human recombinant protein kinases (Homo sapiens, UniProt Q9Y243); conditions: PKBγ(h), read-out: Inhibition rate
T5 construct: purchased Eurofins (Celle Lévescault)
Procedure, shortened: as §1

[6] = target: T6, 380 human recombinant protein kinases (Homo sapiens, UniProt O43293); conditions: ZIPK(h), read-out: Inhibition rate (%)
T6 construct: purchased Eurofins (Celle Lévescault)
Procedure, shortened: as §1

[7] = target: T7, 380 human recombinant protein kinases (Homo sapiens, UniProt Q8N5S9); conditions: CaMKK1(h), read-out: Inhibition rate
T7 construct: purchased Eurofins (Celle Lévescault)
Procedure, shortened: as §1

[8] = target: T8, 380 human recombinant protein kinases (Homo sapiens, UniProt P36507); conditions: MEK2(h), read-out: Inhibition rate
T8 construct: purchased Eurofins (Celle Lévescault)
Procedure, shortened: as §1

[9] = target: T9, 380 human recombinant protein kinases (Homo sapiens, UniProt O43353); conditions: RIPK2(h), read-out: Inhibition rate
T9 construct: purchased Eurofins (Celle Lévescault)
Procedure, shortened: as §1

T5 sequence (Q9Y243 whole entry): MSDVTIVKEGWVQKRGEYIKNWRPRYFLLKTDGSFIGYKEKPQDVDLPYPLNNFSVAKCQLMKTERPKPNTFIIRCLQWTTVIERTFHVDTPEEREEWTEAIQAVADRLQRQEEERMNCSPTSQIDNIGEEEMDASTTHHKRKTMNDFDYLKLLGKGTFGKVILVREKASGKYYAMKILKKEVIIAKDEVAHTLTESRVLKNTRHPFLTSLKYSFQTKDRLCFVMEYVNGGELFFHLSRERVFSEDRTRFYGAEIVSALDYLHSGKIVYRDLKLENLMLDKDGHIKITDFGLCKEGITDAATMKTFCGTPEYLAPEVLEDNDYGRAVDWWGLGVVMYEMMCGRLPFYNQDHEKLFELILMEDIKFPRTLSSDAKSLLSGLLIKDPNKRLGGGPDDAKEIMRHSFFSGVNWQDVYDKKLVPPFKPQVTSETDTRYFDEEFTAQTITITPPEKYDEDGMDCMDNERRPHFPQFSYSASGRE
T2 sequence (P35916 25-1363): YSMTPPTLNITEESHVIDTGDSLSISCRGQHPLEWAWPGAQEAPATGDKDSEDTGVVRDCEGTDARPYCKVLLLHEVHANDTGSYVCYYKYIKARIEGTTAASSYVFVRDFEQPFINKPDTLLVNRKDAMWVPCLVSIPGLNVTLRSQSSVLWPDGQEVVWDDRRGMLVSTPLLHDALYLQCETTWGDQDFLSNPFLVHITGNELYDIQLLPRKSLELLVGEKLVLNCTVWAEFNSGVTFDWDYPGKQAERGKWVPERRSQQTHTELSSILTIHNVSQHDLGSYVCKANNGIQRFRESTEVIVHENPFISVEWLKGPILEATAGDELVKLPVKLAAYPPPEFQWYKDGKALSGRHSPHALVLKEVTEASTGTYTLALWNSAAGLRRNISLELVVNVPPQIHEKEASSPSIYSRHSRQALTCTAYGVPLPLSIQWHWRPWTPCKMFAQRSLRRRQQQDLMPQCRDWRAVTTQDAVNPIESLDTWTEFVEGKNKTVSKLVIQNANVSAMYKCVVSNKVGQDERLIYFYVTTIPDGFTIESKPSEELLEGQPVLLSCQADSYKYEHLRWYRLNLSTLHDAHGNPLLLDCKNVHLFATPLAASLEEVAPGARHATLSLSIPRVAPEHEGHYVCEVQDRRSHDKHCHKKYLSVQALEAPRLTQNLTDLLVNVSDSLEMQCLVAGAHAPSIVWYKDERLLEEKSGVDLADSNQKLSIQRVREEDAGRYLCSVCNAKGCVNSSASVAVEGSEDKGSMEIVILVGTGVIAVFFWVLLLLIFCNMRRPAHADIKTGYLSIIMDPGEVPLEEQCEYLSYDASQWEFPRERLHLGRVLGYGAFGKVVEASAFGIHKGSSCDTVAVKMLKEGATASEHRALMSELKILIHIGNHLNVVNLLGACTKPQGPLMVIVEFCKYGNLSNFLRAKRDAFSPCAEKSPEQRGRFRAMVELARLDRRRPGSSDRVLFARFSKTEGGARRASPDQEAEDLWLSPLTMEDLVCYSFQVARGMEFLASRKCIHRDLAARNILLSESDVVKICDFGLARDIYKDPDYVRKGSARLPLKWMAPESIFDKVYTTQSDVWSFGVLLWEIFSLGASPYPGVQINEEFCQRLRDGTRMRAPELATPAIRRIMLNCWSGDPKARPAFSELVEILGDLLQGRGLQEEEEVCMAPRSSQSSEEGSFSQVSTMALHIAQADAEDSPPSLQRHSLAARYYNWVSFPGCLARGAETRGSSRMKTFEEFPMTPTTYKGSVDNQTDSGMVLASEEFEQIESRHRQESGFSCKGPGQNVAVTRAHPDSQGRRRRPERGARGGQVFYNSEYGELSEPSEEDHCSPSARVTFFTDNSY
T6 sequence (O43293 whole entry): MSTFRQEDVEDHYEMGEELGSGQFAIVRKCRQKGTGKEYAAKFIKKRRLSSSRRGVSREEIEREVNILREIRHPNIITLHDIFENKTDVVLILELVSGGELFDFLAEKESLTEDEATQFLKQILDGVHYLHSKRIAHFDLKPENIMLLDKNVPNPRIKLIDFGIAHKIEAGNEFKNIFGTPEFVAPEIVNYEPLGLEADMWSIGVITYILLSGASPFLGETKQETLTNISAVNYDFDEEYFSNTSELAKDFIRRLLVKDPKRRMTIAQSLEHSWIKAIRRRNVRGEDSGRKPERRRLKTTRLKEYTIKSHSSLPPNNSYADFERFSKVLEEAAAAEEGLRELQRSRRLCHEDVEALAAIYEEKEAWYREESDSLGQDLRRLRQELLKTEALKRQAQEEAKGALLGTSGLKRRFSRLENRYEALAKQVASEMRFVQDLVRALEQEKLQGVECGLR
T9 sequence (O43353 whole entry): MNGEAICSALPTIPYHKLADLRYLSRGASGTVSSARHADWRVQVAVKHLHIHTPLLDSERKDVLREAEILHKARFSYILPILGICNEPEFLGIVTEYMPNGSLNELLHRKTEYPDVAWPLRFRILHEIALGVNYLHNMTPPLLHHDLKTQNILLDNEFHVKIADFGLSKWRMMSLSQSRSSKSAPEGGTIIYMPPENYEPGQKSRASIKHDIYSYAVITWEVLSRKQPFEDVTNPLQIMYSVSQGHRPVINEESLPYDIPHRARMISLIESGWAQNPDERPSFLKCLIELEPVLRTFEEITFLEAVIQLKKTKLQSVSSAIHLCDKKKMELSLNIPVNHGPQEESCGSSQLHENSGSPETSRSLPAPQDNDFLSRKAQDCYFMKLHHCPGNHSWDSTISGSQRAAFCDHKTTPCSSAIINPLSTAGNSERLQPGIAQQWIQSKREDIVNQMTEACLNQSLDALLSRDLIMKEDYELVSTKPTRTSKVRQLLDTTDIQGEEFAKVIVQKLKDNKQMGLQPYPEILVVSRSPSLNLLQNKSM
T7 sequence (Q8N5S9 whole entry): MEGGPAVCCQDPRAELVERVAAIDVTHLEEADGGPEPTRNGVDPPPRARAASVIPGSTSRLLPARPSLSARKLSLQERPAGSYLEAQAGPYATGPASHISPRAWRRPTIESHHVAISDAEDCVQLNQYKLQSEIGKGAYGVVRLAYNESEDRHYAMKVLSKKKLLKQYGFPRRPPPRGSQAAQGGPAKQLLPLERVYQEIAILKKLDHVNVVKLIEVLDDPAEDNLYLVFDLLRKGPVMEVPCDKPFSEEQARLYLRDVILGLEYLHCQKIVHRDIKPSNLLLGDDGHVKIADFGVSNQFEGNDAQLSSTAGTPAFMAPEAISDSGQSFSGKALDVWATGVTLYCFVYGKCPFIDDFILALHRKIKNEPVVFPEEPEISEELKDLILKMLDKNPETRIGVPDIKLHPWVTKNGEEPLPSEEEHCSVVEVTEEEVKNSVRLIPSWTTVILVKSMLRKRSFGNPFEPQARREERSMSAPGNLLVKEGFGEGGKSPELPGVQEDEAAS
T1 sequence (Q15208 whole entry): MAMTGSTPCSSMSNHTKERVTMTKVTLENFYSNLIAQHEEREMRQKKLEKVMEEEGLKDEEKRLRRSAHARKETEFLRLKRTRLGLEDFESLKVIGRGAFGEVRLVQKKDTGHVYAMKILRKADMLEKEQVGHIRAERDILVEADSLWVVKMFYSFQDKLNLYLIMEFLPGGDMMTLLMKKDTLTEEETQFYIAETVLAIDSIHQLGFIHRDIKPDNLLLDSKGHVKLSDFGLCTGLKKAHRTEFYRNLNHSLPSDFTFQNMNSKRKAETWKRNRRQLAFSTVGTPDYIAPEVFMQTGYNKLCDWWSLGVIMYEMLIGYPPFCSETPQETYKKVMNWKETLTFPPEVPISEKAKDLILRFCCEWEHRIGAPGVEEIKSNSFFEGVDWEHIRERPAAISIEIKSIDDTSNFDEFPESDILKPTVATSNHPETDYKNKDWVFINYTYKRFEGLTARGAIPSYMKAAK
T8 sequence (P36507 whole entry): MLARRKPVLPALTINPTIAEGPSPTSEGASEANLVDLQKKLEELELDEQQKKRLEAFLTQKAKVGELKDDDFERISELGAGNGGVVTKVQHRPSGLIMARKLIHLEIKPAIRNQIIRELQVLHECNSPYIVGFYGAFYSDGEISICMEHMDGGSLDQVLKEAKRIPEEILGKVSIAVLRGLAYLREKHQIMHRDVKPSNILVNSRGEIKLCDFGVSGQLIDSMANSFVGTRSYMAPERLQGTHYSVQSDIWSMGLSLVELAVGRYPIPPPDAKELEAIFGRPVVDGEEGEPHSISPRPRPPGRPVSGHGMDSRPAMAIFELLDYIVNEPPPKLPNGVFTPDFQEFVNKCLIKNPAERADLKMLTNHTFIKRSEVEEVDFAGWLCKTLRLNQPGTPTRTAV

For `C=CC(=O)Nc1cc(-c2cc(-c3cc4c([nH]3)CCNC4=O)ccn2)ccc1OC(F)(F)F` [compound 11], the inhibition at 0.01 µM ([1]; 10 nM) was -17%, the inhibition at 0.1 µM ([1]; 100 nM) was -14% and the inhibition at 1 µM ([1]; 1000 nM) was -12%. It also gave an inhibition at 0.01 µM ([2]; 10 nM) of -8%, an inhibition at 0.1 µM ([2]; 100 nM) of 5% and an inhibition at 1 µM ([2]; 1000 nM) of 43%. It also gave an inhibition at 0.01 µM ([3]; 10 nM) of -1%, an inhibition at 0.1 µM ([3]; 100 nM) of -9% and an inhibition at 1 µM ([3]; 1000 nM) of 2%. The inhibition at 0.01 µM ([4]; 10 nM) was -1%, the inhibition at 0.1 µM ([4]; 100 nM) was 1% and the inhibition at 1 µM ([4]; 1000 nM) was 7%. For the same compound, the inhibition at 0.01 µM ([5]; 10 nM) was 0%, the inhibition at 0.1 µM ([5]; 100 nM) was 3% and the inhibition at 1 µM ([5]; 1000 nM) was 9%. For the same compound, the inhibition at 0.01 µM ([6]; 10 nM) was 4%, the inhibition at 0.1 µM ([6]; 100 nM) was 8% and the inhibition at 1 µM ([6]; 1000 nM) was 15%. The inhibition at 0.01 µM ([7]; 10 nM) was -7%, the inhibition at 0.1 µM ([7]; 100 nM) was 4% and the inhibition at 1 µM ([7]; 1000 nM) was 11%. For the same compound, the inhibition at 0.01 µM ([8]; 10 nM) was -4%, the inhibition at 0.1 µM ([8]; 100 nM) was 4% and the inhibition at 1 µM ([8]; 1000 nM) was 6%. For the same compound, the inhibition at 0.01 µM ([9]; 10 nM) was 11%, the inhibition at 0.1 µM ([9]; 100 nM) was 46% and the inhibition at 1 µM ([9]; 1000 nM) was 88%.
